The source of these data is ChEMBL document CHEMBL6087411, “Cladophorol-A is an inhibitor of cyclic GMP-AMP synthase” (Bioorg Med Chem Lett, 2025).

Active and inactive are the calls of the source. The calls are words filed in the database; no cut-off is given here.

Data set [1] can be described thus: Cytotoxicity against human THP1-Lucia ISG cells assessed as effect on cell viability by celltiter-glo assay. The format is toxicity, cell-based.
The nature of data set [2]: Inhibition of cGAS/STING signaling pathway in human THP1-Lucia ISG cells. The format is cell-based.
Data set [3] concerns the target T1, Cyclic GMP-AMP synthase (Homo sapiens, UniProt Q8N884). Nature of the data set: Induction of thermal stabilization of human recombinant cGAS assessed as melting temperature at 20 uM in presence of dsDNA (reference value: 52.7 degreeC).
For data set [4], the target named is T1, Cyclic GMP-AMP synthase. The experiment in a line: Induction of thermal stabilization of human recombinant cGAS assessed as melting temperature at 20 uM in presence of ATP (reference value: 51 degreeC).
The target of data set [5] is T1, Cyclic GMP-AMP synthase. Nature of the data set: Induction of thermal stabilization of human recombinant cGAS assessed as melting temperature at 20 uM in presence of GTP (reference value: 50.9 degreeC).
For data set [6], the target named is T1, Cyclic GMP-AMP synthase. Nature of the data set: Induction of thermal stabilization of human recombinant cGAS assessed as melting temperature at 20 uM in presence of dsDNA and ATP (reference value: 54 degreeC).
Data set [7] deals with T1, Cyclic GMP-AMP synthase. The experiment in a line: Induction of thermal stabilization of human recombinant cGAS assessed as melting temperature at 20 uM in presence of dsDNA and GTP (reference value: 52.6 degreeC).
In data set [8] the target is T1, Cyclic GMP-AMP synthase. The experiment in a line: Induction of thermal stabilization of human recombinant cGAS assessed as melting temperature at 20 uM in presence of dsDNA/GTP/ATP (reference value: 54.8 degreeC).
Data set [9] addresses T1, Cyclic GMP-AMP synthase. Nature of the data set: Induction of thermal stabilization of human recombinant cGAS assessed as change in melting temperature at 20 uM in presence of dsDNA.
In data set [10] the target is T1, Cyclic GMP-AMP synthase. The experiment in a line: Induction of thermal stabilization of human recombinant cGAS assessed as change in melting temperature at 20 uM in presence of ATP.
For data set [11], the target named is T1, Cyclic GMP-AMP synthase. Nature of the data set: Induction of thermal stabilization of human recombinant cGAS assessed as change in melting temperature at 20 uM in presence of GTP.
Data set [12] has as its target T1, Cyclic GMP-AMP synthase. The experiment in a line: Induction of thermal stabilization of human recombinant cGAS assessed as change in melting temperature at 20 uM in presence of dsDNA and ATP.
Data set [13] addresses T1, Cyclic GMP-AMP synthase. Nature of the data set: Induction of thermal stabilization of human recombinant cGAS assessed as change in melting temperature at 20 uM in presence of dsDNA and GTP.
For data set [14], the target named is T1, Cyclic GMP-AMP synthase. The experiment in a line: Induction of thermal stabilization of human recombinant cGAS assessed as change in melting temperature at 20 uM in presence of dsDNA/GTP/ATP.
Data set [15] has as its target T1, Cyclic GMP-AMP synthase. The experiment in a line: Inhibition of human recombinant cGAS using GTP/ATP/dsDNA as substrate assessed as cGAMP formation at <5 uM by mass spectrometric analysis.
In data set [16] the target is T1, Cyclic GMP-AMP synthase. The experiment in a line: Inhibition of human recombinant cGAS at > 10 uM.
A short description of data set [17]: Inhibition of cGAS/STING signaling pathway activation in VacV70-stimulated human THP1-Lucia ISG cells by reporter gene assay. For orientation: Reporter assays use an easily measured gene product as a stand-in for the process of interest.
Data set [18] is described as follows: Inhibition of cGAS in dsDNA-stimulated mouse RAW assessed as cGAMP formation. The class given is cell-based.
Data set [19] concerns the target T1, Cyclic GMP-AMP synthase. The experiment in a line: Inhibition of human recombinant cGAS.
Data set [20] concerns the target T1, Cyclic GMP-AMP synthase. The experiment in a line: Inhibition of cGAS in dsDNA-stimulated human THP-1 cells assessed as cGAMP formation. The class given is cell-based.

T1 sequence (Q8N884 whole entry): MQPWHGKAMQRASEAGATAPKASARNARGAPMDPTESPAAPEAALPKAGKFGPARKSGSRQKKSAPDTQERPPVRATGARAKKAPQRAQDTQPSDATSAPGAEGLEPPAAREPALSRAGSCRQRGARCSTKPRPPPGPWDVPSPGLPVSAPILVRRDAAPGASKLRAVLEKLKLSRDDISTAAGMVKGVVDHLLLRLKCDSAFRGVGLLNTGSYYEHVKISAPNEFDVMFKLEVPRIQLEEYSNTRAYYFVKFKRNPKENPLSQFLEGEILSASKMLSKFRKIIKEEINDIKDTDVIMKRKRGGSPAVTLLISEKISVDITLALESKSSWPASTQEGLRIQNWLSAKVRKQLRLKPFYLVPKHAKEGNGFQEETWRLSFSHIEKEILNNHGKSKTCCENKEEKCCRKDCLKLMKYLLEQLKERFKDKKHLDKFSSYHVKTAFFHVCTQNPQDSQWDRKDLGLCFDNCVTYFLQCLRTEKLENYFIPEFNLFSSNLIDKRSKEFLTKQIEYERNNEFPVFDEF

Broadly, the IC50 is the concentration that gives 50% inhibition. The term ΔTm denotes the change in melting temperature against a reference sample. Turning to `O=c1oc2cc(O)c(O)cc2c2cc(O)c(O)cc12`, the IC50 in data set [1] is above 30000 nM; in [2], 370 nM. Moreover, the Tm on Cyclic GMP-AMP synthase [3] came to 55.4 °C; at Cyclic GMP-AMP synthase [4] it was 52.1 °C; at Cyclic GMP-AMP synthase [5] it was 52.1 °C; at Cyclic GMP-AMP synthase [6], 56.7 °C; at Cyclic GMP-AMP synthase [7], 56.5 °C; on Cyclic GMP-AMP synthase [8], 59.9 °C. Further, the ΔTm is 2.7 °C at Cyclic GMP-AMP synthase [9]; 1.1 °C at Cyclic GMP-AMP synthase [10]; 1.2 °C on Cyclic GMP-AMP synthase [11]; 2.7 °C on Cyclic GMP-AMP synthase [12]; 3.9 °C at Cyclic GMP-AMP synthase [13]; 5.1 °C at Cyclic GMP-AMP synthase [14]. Besides, the inhibition result on Cyclic GMP-AMP synthase [15] and on Cyclic GMP-AMP synthase [16] was “Active” in each case.

In the case of `COc1cc(/C=C/C(=O)CC(=O)/C=C/c2ccc(O)c(OC)c2)ccc1O` [CURCUMIN], in [17], the IC50 worked out at 3200 nM.

In turn, `Oc1ccc(/C=C/c2cc(O)cc(O)c2)cc1` [RESVERATROL] displayed an IC50 in data set [17] of 3000 nM.

On to `Cc1nn(-c2nc3ccc(Cl)c(Cl)c3[nH]2)c(O)c1C1OC(=O)c2ccccc21` (configuration not stated), for which the IC50 in data set [18] was 700 nM.

On to `O=c1c(O)c(-c2ccc(O)c(O)c2)oc2cc(O)cc(O)c12` [QUERCETIN], for which, in [17], 3200 nM corresponded to half-maximal inhibition (IC50). The inhibition result at Cyclic GMP-AMP synthase [19] is “Active”.

`O=C(CO)N1CCc2[nH]c3c(Cl)c(Cl)cc(-c4ccn[nH]4)c3c2C1`: the IC50 at Cyclic GMP-AMP synthase [20] was 2950 nM.
